No end group written: not given here.

These results are taken from US10793598B2, “GrB-EHITSN inhibitory peptides” (Rush University Medical Center, priority 2014, dated 2020).

For data set [1], the system named is myc-GrB-EHITSN-transfected ECs. In words: MTT assay of EC proliferation / cell growth. The class given is cell-based. As to conditions: for cell growth / EC proliferative potential (MTT): myc-GrB-EHITSN-transfected ECs, 12.5 μM peptide, 1 h, 37° C., vs transfected ECs not exposed. Here is the method: (§1) (c), using phospho (p)-p38 and p38 Abs. […] C. […] Bar: 50 μm. Inset c1. ECCtrl (a) and myc-GrB-EHITSN-ECs (b) lysates resolved on SDS PAGE and transferred to nitrocellulose membranes were overlaid with the PenNFP-FITC.
(§2) ECs stably transfected with the myc-GrB-EHITSN [selected based on neomycin-resistance], were treated with the PenNPF-FITC peptide to address whether inhibition of GrB-EHITSN ameliorates EC proliferation. […] A growth curve was generated to relate the OD^570 values to the cell number per well. […] Inset c1. ECCtrl (a) and myc-GrB-EHITSN-ECs (b) lysates resolved on SDS PAGE and transferred to nitrocellulose membranes were overlaid with the PenNFP-FITC.
(Formazan colour is commonly taken as a measure of viable cells.)

The test system of data set [2] is phospho-p38. In words: WB of cell lysates using phospho (p)-p38 and p38 Abs. The settings on record: GrB-EHITSN-transfected ECs, exposure for 24 h. The class given is cell-based. Here is the method: as §1, §2
The test system of data set [3] is ECs. In words: Fluorescence microscopy of peptide internalization. The class given is cell-based. As to conditions: 12.5 μM PenNPF-FITC. How it is done:
(§3) FIGS. 1A-1C illustrate the effect of the GrB-EHITSN inhibitory peptide on ECs. A. MTT assay applied on ECCtrl, myc-GrB-EHITSN-transfected ECs and myc-GrB-EHITSN-transfected ECs exposed to 12.5 μM PenNFP-FITC peptide for 1 h, 37° C.; p<0.05; WB of cell lysates (inset a1) of ECCtrl (a), myc-GrB-EHITSN-ECs (b) and myc-GrB-EHITSN-ECs+12.5 μM PenNPF for 1 h, 37° C. (c), using phospho (p)-p38 and p38 Abs. B. Quantification of EC proliferation: ECCtrl (a), myc-GrB-EHITSN-ECs (b), myc-GrB-EHITSN-ECs+12.5 μM PenNPF (c), myc-GrB-EHITSN-ECs+12.5 μM Pen-AAA (d), myc-GrB-EHITSN-ECs+12.5 μM Pen (e), myc-GrB-EHITSN-ECs+12.5 μM NPF (f), and myc-GrB-EHITSN-ECs+12.5 μM scrambled penNPF, (g). Data in A and B are mean±SEM of 3 independent experiments performed in triplicates. *p<0.05 vs. ECCtrl. C. Fluorescence microscopy of ECs exposed to 12.5 μM PenNPF-FITC, fixed and mounted on glass slides with Prolong Antifade with DAPI. Bar: 50 μm. Inset c1. ECCtrl (a) and myc-GrB-EHITSN-ECs (b) lysates resolved on SDS PAGE and transferred to nitrocellulose membranes were overlaid with the PenNFP-FITC.
(§4) ECs stably transfected with the myc-GrB-EHITSN [selected based on neomycin-resistance], were treated with the PenNPF-FITC peptide to address whether inhibition of GrB-EHITSN ameliorates EC proliferation. […] A growth curve was generated to relate the OD^570 values to the cell number per well. […]

The target of data set [4] is T1, myc-GrB-EHITSN (Homo sapiens, UniProt Q15811).
T1 construct: with a conserved cleavage site (IDQD^271GK) throughout the evolution; expressed in transfected cells; host or cells: endothelial cells (ECs), stably transfected, neomycin-selected; lysates resolved by SDS-PAGE and blotted
T1 sequence (Q15811 1-271): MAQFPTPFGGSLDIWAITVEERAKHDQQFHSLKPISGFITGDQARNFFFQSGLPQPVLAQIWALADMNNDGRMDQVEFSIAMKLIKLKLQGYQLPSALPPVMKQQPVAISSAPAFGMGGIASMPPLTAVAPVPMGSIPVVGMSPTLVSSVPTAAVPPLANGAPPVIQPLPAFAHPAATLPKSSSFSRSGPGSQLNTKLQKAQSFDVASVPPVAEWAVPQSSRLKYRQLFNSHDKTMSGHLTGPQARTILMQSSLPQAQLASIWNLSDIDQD
In words: Overlay of lysates on nitrocellulose membranes with FITC peptide, detected by FITC Ab. In kind it is binding. As to conditions: overlay on myc-GrB-EHITSN-EC lysates; n=3. How it is done:
as §3, §4

The test system of data set [5] is myc-GrB-EHITSN-mice. As to the kind of experiment: RVSP measured by right heart catheterization. The class given is in vivo, mouse. Here is the method: FIGS. 3A-3D illustrate representative H&E staining of lung sections of myc-GrB-EHITSN-KDITSN mice (A, a1, B) and RVSP measurements (C) in wt-(bar a), empty-Lipo (bar b) and myc-GrB-EHITSN-mice (bar c), 10 days of GrB-EHITSN treatment. […] Data are mean±SEM. For morphological assessment of peptide internalization (panel D), mice were sacrificed 1 h after injection. Bars: 50 μm (A, B); 20 μm (a1, D). n=3.

Data set [6] relates to BrdU+ ECs. As to the kind of experiment: BrdU cell proliferation assay in mouse lungs. In kind it is in vivo. As to conditions: myc-GrB-EHITSN plasmid via cationic liposomes into mouse lungs, day 6 of treatment. An excerpt:
FIGS. 2A-2B illustrate the proliferative effect of the GrB-EHITSN fragment on EC in vivo. Wt-mice (B) and myc-GrB-EHITSN-treated mice, day 5 of treatment (A) were subjected to BrdU proliferation assay. Data are mean±SEM. All data are representative of 3 mice in each group. Bars: 20 μm.
(§5) GrB-EHITSN has EC proliferative potential in vivo. To address the proliferative potential of GrB-EHITSN in vivo, the myc-GrB-EHITSN DNA plasmid was delivered via cationic liposomes into mouse lungs. (Knezevic, 2011). […] For continuous and efficient long-term expression of myc-GrB-EHITSN, mice were injected repeatedly every 48 h, for 9 days (Bardita, 2013). Actin was used as loading control. In parallel studies, myc-GrB-EHITSN-transduced mice (FIG. 2B) and wt-controls (FIG. 2A) were subjected to BrdU cell proliferation and morphometric analyses, at day 6 of GrB-EHITSN treatment (Bardita, 2013). BrdU was injected intra-peritoneally every 24 h, for 2 consecutive days (day 4 and 5 of myc-GrB-EHITSN treatment). Incorporated BrdU was detected via BrdU-FITC Ab; CD31 Ab/AlexaFluor 594 was used for positive identification of ECs. For morphological assessment of peptide internalization mice were sacrificed 1 h after injection. […] Data in FIG. 2A-B indicate that the GrB-EHITSN has EC proliferative in vivo.

Data set [7] has as its system GrB-EHITSN-mice. In words: Fulton's index (RV hypertrophy). In kind it is in vivo, mouse. The settings on record: means±SEM, p<0.05 vs wt-mice. An excerpt:
GrB-EHITSN increases pulmonary pressure in mouse lungs. […] The Fulton's index (RV/left ventricle plus septum), indicative of RV hypertrophy, assessed as in (Qin, 2012) was higher in GrB-EHITSN-mice compared to wt-mice (0.31±0.03 vs. 0.22±0.01; means±SEM; p<0.05).

Data set [8] in a line: WB with myc Ab on lung lysates (expression of the encoded protein). The class given is in vivo, mouse. The settings on record: after liposomal plasmid delivery; efficiently expressed at 48 h post-delivery. Here is the method:
as §5

For “PenNPF-FITC: PenNPF inhibitory peptide carrying a FITC-tag (RQIKIWFQNRRMKWKKPTGSSSTNPFL; also: FITC tag, site not given here)”, in data set [1] (calculated on 3 successive points of growth curve, vs transfected ECs not exposed to peptide), the “decrease in the number of myc-GrB-EHITSN-transfected cells” value is “greater than 35%”. Also, the “cell growth / EC proliferative potential (MTT)” value in data set [1] is “inhibits cell growth”. Besides, the OD570 values entry in data set [1] (wells with myc-GrB-EHITSN-transfected cells exposed to peptide) was “close to the OD^570 values of control ECs”. The “phospho-p38 / p38 activation” value in data set [2] was “phospho-p38 inhibition”. In addition, the “internalization by ECs (fluorescent imaging)” value in data set [3] is “efficient internalization”. The “interaction with myc-GrB-EHITSN” value in data set [4] is given as “direct interaction”.

As to “RQIKIWFQNRRMKWKKPTGSSSTNPFL (PenNPF fusion peptide)”, the “cell growth / EC proliferative potential (MTT)” value in data set [1] was “decreases the ECs proliferative potential of GrB-EHITSN”. Also, the “phospho-p38 / p38 activation” value in data set [2] is “decreases the ECs proliferative potential of GrB-EHITSN and p38 activation”. Moreover, in data set [5] (myc-GrB-EHITSN-mice, 50 μg PenNPF/mouse), the “decrease in RVSP” value came to 20%.

B1: myc-GrB-EHITSN: myc-tagged granzyme B cleavage fragment of intersectin-1s (two EH domains), expressed from DNA plasmid delivered via cationic liposomes (protein)
chain: MAQFPTPFGGSLDIWAITVEERAKHDQQFHSLKPISGFITGDQARNFFFQSGLPQPVLAQIWALADMNNDGRMDQVEFSIAMKLIKLKLQGYQLPSALPPVMKQQPVAISSAPAFGMGGIASMPPLTAVAPVPMGSIPVVGMSPTLVSSVPTAAVPPLANGAPPVIQPLPAFAHPAATLPKSSSFSRSGPGSQLNTKLQKAQSFDVASVPPVAEWAVPQSSRLKYRQLFNSHDKTMSGHLTGPQARTILMQSSLPQAQLASIWNLSDIDQD
modifications: left off: small tags and cut ends
notes: myc-tagged granzyme B cleavage fragment of intersectin-1s (two EH domains), expressed from DNA plasmid delivered via cationic liposomes
For the molecule B1, the “increase in RVSP compared to wt- and empty liposomes-treated mice” value in data set [5] (day 10-post initial GrB-EHITSN delivery) turned out to be 1.36 fold. Further, in data set [6], the “increase in BrdU+ ECs relative to controls” value was “more than 1.6 fold”. The “Fulton's index (RV/left ventricle plus septum)” value in data set [7] was determined as 0.31±0.03. Moreover, the “lifetime of encoded protein in mouse lung” value in data set [8] is “about 72 h”.
